# Test results reported in US20100298141A1, “SUBSTITUTED PYRIDINE N-OXIDE HERBICIDES” (E. I. DU PONT DE NEMOURS AND COMPANY, priority 2007, published 2010).
# How the values were obtained:
# Assay in all cases: Test F preemergence test
# [1] = test system: green foxtail; assay type: in vivo, Setaria viridis; conditions: scale 0 to 100
# Method in brief: (§1)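 Compound in a non-phytotoxic solvent blend with surfactant is applied preemergence to planted seeds or postemergence to sugarcane plants. Plants and controls stay in the greenhouse 14 to 21 days before visual comparison.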
# [2] = test system: naked crabgrass; assay type: in vivo, Digitaria nuda; conditions: scale 0 to 100
# Method in brief: as §1
# [3] = test system: common sowthistle; assay type: in vivo, Sonchus oleraceous; conditions: scale 0 to 100; for Sowthistle plant response rating: preemergence; for Plant response rating, Sowthistle: Preemergence
# Source text: Seeds of plant species selected from bermudagrass (Cynodon dactylon), Surinam grass (Brachiaria decumbens), large crabgrass (Digitaria sanguinalis), green foxtail (Setaria viridis), goosegrass (Eleusine indica), johnsongrass (Sorghum halepense), kochia (Kochia scoparia), pitted morningglory (Ipomoea lacunosa), purple nutsedge (Cyperus rotundus), common ragweed (Ambrosia elation), mustard (Brassica nigra), guineagrass (Panicum maximum), […] (Paspalum dilatatum), barnyardgrass (Echinochloa crus-galli), southern sandbur (Cenchrus echinatus), common sowthistle (Sonchus oleraceous), prickly […] spinosa), Italian ryegrass (Lolium multiflorum), common purslane (Portulaca oleracea), broadleaf signalgrass (Brachiaria platyphylla), common groundsel (Senecio vulgaris), common chickweed (Stellaria media), Virginia dayflower (Commelina virginica), annual bluegrass (Poa annua), naked crabgrass (Digitaria nuda), […] cochinchinensis), quackgrass (Elytrigia repens), Canada horseweed (Conyza canadensis), field bindweed (Convolvulus arvensis), […] (Bidens bipinnata), common mallow (Malva sylvestris), Russian thistle (Salsola kali), and sugarcane (Saccharum officinarum) were planted and treated preemergence with test chemicals formulated in a non-phytotoxic solvent mixture which included a surfactant. At a different time, sugarcane was treated with postemergence applications of some of the test chemicals formulated in the same manner. Plants were approximately 3- to 4-leaf stage for the postemergence treatments. Treated plants and controls were maintained in a greenhouse for 14 to 21 days, after which time all species were compared to controls and visually evaluated. […] A dash (-) response means no test result.
# [4] = test system: prickly sida; assay type: in vivo, Sida spinosa; conditions: scale 0 to 100
# Method in brief: as §1
# [5] = test system: itchgrass; assay type: in vivo, Rottboellia cochinchinensis; conditions: scale 0 to 100
# Method in brief: as §1
# [6] = test system: Canada horseweed; assay type: in vivo, Conyza canadensis; conditions: scale 0 to 100
# Method in brief: as §1
# [7] = test system: dallisgrass; assay type: in vivo, Paspalum dilatatum; conditions: scale 0 to 100
# Method in brief: as §1
# [8] = test system: spanishneedles; assay type: in vivo, Bidens bipinnata; conditions: scale 0 to 100; for Spanishneedles plant response rating: preemergence; for Plant response rating, Spanishneedles: Preemergence
# Method in brief: as §1
# [9] = test system: common mallow; assay type: in vivo, Malva sylvestris; conditions: scale 0 to 100
# Method in brief: as §1
# [10] = test system: common purslane; assay type: in vivo, Portulaca oleracea; conditions: scale 0 to 100
# Method in brief: as §1
# [11] = test system: annual bluegrass; assay type: in vivo, Poa annua; conditions: scale 0 to 100
# Method in brief: as §1
# [12] = test system: field bindweed; assay type: in vivo, Convolvulus arvensis; conditions: scale 0 to 100
# Method in brief: as §1
# [13] = test system: pitted morningglory; assay type: in vivo, Ipomoea lacunosa; conditions: scale 0 to 100
# Method in brief: as §1
# [14] = test system: common groundsel; assay type: in vivo, Senecio vulgaris; conditions: scale 0 to 100
# Method in brief: as §1
# [15] = test system: johnsongrass; assay type: in vivo, Sorghum halepense; conditions: scale 0 to 100
# Method in brief: as §1
# [16] = test system: guineagrass; assay type: in vivo, Panicum maximum; conditions: scale 0 to 100
# Method in brief: as §1
structure (smiles),measurement,setting,value
CCc1cc[n+]([O-])c(S(=O)(=O)Cc2c(C(F)(F)F)nn(C)c2OCC(F)(F)F)c1 [Compound 60],"Foxtail, Green plant response rating","[1]; 62 g ai/ha, Preemergence",75
same,"Foxtail, Green plant response rating","[1]; 125 g ai/ha, preemergence",100
same,"Foxtail, Green plant response rating","[1]; 250 g ai/ha, preemergence",100
same,"Plant response rating, Foxtail, Green","[1]; Preemergence, 31 g ai/ha",15
same,"Crabgrass, Naked plant response rating","[2]; 62 g ai/ha, Preemergence",100
same,"Crabgrass, Naked plant response rating","[2]; 125 g ai/ha, preemergence",100
same,"Crabgrass, Naked plant response rating","[2]; 250 g ai/ha, preemergence",100
same,"Plant response rating, Crabgrass, Naked","[2]; Preemergence, 31 g ai/ha",20
same,Sowthistle plant response rating,[3]; 125 g ai/ha,100
same,Sowthistle plant response rating,[3]; 250 g ai/ha,100
same,"Plant response rating, Sowthistle",[3]; 62 g ai/ha,100
same,"Plant response rating, Sowthistle",[3]; 31 g ai/ha,80
same,Prickly Sida plant response rating,"[4]; 62 g ai/ha, Preemergence",40
same,Prickly Sida plant response rating,"[4]; 125 g ai/ha, preemergence",75
same,Prickly Sida plant response rating,"[4]; 250 g ai/ha, preemergence",75
same,"Plant response rating, Prickly Sida","[4]; Preemergence, 31 g ai/ha",0
same,Itchgrass plant response rating,"[5]; 62 g ai/ha, Preemergence",15
same,Itchgrass plant response rating,"[5]; 125 g ai/ha, preemergence",25
same,Itchgrass plant response rating,"[5]; 250 g ai/ha, preemergence",70
same,"Plant response rating, Itchgrass","[5]; Preemergence, 31 g ai/ha",0
same,Horseweed plant response rating,"[6]; 62 g ai/ha, Preemergence",100
same,Horseweed plant response rating,"[6]; 125 g ai/ha, preemergence",100
same,Horseweed plant response rating,"[6]; 250 g ai/ha, preemergence",100
same,"Plant response rating, Horseweed","[6]; Preemergence, 31 g ai/ha",95
same,Dallisgrass plant response rating,"[7]; 62 g ai/ha, Preemergence",75
same,Dallisgrass plant response rating,"[7]; 125 g ai/ha, preemergence",80
same,Dallisgrass plant response rating,"[7]; 250 g ai/ha, preemergence",100
same,"Plant response rating, Dallisgrass","[7]; Preemergence, 31 g ai/ha",75
same,Spanishneedles plant response rating,[8]; 125 g ai/ha,80
same,Spanishneedles plant response rating,[8]; 250 g ai/ha,100
same,"Plant response rating, Spanishneedles",[8]; 62 g ai/ha,80
same,"Plant response rating, Spanishneedles",[8]; 31 g ai/ha,20
same,Mallow plant response rating,"[9]; 62 g ai/ha, Preemergence",75
same,Mallow plant response rating,"[9]; 125 g ai/ha, preemergence",100
same,Mallow plant response rating,"[9]; 250 g ai/ha, preemergence",100
same,"Plant response rating, Mallow","[9]; Preemergence, 31 g ai/ha",0
same,Purslane plant response rating,"[10]; 62 g ai/ha, Preemergence",0
same,Purslane plant response rating,"[10]; 125 g ai/ha, preemergence",25
same,Purslane plant response rating,"[10]; 250 g ai/ha, preemergence",60
same,"Plant response rating, Purslane","[10]; Preemergence, 31 g ai/ha",0
same,Bluegrass plant response rating,"[11]; 62 g ai/ha, Preemergence",50
same,Bluegrass plant response rating,"[11]; 125 g ai/ha, preemergence",90
same,Bluegrass plant response rating,"[11]; 250 g ai/ha, preemergence",100
same,"Plant response rating, Bluegrass","[11]; Preemergence, 31 g ai/ha",35
same,Field Bindweed plant response rating,"[12]; 62 g ai/ha, Preemergence",30
same,Field Bindweed plant response rating,"[12]; 125 g ai/ha, preemergence",50
same,Field Bindweed plant response rating,"[12]; 250 g ai/ha, preemergence",70
same,"Plant response rating, Field Bindweed","[12]; Preemergence, 31 g ai/ha",0
same,Morningglory plant response rating,"[13]; 62 g ai/ha, Preemergence",0
same,Morningglory plant response rating,"[13]; 125 g ai/ha, preemergence",70
same,Morningglory plant response rating,"[13]; 250 g ai/ha, preemergence",100
same,"Plant response rating, Morningglory","[13]; Preemergence, 31 g ai/ha",0
same,Groundsel plant response rating,"[14]; 62 g ai/ha, Preemergence",60
same,Groundsel plant response rating,"[14]; 125 g ai/ha, preemergence",75
same,Groundsel plant response rating,"[14]; 250 g ai/ha, preemergence",95
same,"Plant response rating, Groundsel","[14]; Preemergence, 31 g ai/ha",0
same,Johnsongrass plant response rating,"[15]; 62 g ai/ha, Preemergence",50
same,Johnsongrass plant response rating,"[15]; 125 g ai/ha, preemergence",95
same,Johnsongrass plant response rating,"[15]; 250 g ai/ha, preemergence",100
same,"Plant response rating, Johnsongrass","[15]; Preemergence, 31 g ai/ha",0
same,Guineagrass plant response rating,"[16]; 62 g ai/ha, Preemergence",100
same,Guineagrass plant response rating,"[16]; 125 g ai/ha, preemergence",100
same,Guineagrass plant response rating,"[16]; 250 g ai/ha, preemergence",100
same,"Plant response rating, Guineagrass","[16]; Preemergence, 31 g ai/ha",35
